Experimental data reported in BigSolDB 2.1.

NC(=O)N/N=C/c1ccc([N+](=O)[O-])o1
solubility (mole fraction)
Conditions	278.15 K	283.15 K	288.15 K	293.15 K	298.15 K	303.15 K	308.15 K	313.15 K	318.15 K	323.15 K
in DMSO	–	–	–	0.0448	0.0469	0.0493	0.053	0.0577	0.0636	0.0709
in NMP	0.0317	0.0354	0.0396	0.0457	0.0522	0.0591	0.0662	0.075	0.0853	0.0985
in ethanol	6.72e-05	8.38e-05	0.000102	0.000123	0.000149	0.000178	0.000213	0.000258	0.000303	0.000364
in isopropanol	6.89e-05	8.99e-05	0.000117	0.000138	0.000175	0.000223	0.00027	0.000331	0.00039	0.000484
in water	1.32e-05	1.66e-05	1.96e-05	2.46e-05	2.98e-05	3.66e-05	4.5e-05	5.75e-05	6.84e-05	8.47e-05
